Structures can show the parent of a compound that is named as a salt. Where two headings read alike, the source gives them in different places.
Experiments:
human 5-HT6 = target: T1, human 5-HT6 (Homo sapiens, UniProt P50406); test: biochemical; type: binding
T1 construct: expressed in transfected cells; host or cells: HEK 293

5-HT3 receptors = target: T2, 5-HT3 receptors (Homo sapiens, UniProt P46098); test: Affinity at 5-HT3 receptors; type: binding
T2 sequence (P46098 24-478): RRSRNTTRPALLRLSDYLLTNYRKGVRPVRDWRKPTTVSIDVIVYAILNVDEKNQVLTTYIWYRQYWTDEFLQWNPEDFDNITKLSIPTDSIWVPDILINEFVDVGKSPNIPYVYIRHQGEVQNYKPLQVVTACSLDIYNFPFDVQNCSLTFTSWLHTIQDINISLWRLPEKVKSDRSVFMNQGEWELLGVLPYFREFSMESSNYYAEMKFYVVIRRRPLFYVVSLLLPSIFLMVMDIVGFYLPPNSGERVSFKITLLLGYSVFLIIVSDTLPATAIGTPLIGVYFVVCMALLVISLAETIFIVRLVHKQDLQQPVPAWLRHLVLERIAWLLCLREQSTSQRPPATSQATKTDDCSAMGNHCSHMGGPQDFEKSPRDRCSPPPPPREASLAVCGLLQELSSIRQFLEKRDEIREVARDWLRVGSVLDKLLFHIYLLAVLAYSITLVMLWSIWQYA

[1] = target: T3, Human 5-HT6 receptors stably expressed in 293 HEK cells (Homo sapiens, UniProt P50406); test: cAMP activation assay (adenylate cyclase activity); type: cell-based; details: 5-HT6 receptor
T3 construct: expressed in transfected cells; host or cells: HEK 293
T3 sequence (P50406 whole entry): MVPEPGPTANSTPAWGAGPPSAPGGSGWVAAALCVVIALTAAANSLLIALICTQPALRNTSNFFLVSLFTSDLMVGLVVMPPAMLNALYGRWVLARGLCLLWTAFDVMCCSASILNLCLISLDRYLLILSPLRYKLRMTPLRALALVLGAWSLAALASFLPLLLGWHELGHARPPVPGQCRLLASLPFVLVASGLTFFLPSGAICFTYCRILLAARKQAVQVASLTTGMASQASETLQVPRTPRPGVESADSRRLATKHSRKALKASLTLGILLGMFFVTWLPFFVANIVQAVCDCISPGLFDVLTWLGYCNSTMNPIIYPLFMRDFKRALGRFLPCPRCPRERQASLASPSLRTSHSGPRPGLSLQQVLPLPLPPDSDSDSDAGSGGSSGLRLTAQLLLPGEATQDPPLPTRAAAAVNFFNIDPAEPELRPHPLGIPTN
Protocol: Human 5-HT6 receptors stably expressed in 293 HEK cells were grown in 24-well plates to near confluence and 18 h prior to the assay the medium was replaced with DMEM containing dialyzed 10% Fetal Calf Serum. For the assay, the medium was aspirated and replaced with fresh DMEM without serum and incubated with various concentrations of compounds of the invention in a total volume of 0.5 ml for 15 min. The assay was terminated by aspiration and the addition of 10% trichloroacetic acid (TCA). The TCA extract was used for cAMP determinations. (Data represent the mean of N=4 separate determinations). Results of cAMP activation by various compounds of the invention are shown in the attached Drawing of FIG. 1.

hD1 = hD1 (Homo sapiens, UniProt P21728); test: NIMH PDSP selectivity binding, hD1
Sequence of hD1 (P21728 whole entry): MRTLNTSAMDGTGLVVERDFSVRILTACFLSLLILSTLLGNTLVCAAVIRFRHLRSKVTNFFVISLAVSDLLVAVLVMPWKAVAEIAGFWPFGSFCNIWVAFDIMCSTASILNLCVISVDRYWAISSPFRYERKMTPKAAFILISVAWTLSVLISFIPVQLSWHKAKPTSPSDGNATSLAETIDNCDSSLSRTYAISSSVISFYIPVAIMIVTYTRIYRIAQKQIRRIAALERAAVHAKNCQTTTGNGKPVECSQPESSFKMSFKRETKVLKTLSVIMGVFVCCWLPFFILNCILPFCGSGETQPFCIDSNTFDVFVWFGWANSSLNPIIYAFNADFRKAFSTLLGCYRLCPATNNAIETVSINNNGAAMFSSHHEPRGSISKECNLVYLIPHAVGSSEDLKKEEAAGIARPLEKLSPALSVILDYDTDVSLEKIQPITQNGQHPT
From the text: (§1) . […] NET and SERT represent the norepinephrine and serotonin transporters.

rD2 = rD2 (Rattus norvegicus, UniProt P61169); test: NIMH PDSP selectivity binding, rD2
Sequence of rD2 (P61169 whole entry): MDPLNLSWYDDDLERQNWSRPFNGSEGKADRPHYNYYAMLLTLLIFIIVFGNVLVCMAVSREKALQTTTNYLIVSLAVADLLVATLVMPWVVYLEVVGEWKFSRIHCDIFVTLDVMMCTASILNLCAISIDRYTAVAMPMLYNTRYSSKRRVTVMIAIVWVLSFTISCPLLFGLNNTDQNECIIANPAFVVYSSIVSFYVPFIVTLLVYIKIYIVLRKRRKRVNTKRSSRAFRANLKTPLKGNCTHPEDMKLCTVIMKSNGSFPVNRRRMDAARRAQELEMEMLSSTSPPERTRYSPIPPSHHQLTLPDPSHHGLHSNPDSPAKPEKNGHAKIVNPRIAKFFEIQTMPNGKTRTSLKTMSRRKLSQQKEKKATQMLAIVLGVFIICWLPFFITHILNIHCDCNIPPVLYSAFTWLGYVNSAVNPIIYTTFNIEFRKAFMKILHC
From the text: as §1

rD3 = rD3 (Rattus norvegicus, UniProt P19020); test: NIMH PDSP selectivity binding, rD3
Sequence of rD3 (P19020 whole entry): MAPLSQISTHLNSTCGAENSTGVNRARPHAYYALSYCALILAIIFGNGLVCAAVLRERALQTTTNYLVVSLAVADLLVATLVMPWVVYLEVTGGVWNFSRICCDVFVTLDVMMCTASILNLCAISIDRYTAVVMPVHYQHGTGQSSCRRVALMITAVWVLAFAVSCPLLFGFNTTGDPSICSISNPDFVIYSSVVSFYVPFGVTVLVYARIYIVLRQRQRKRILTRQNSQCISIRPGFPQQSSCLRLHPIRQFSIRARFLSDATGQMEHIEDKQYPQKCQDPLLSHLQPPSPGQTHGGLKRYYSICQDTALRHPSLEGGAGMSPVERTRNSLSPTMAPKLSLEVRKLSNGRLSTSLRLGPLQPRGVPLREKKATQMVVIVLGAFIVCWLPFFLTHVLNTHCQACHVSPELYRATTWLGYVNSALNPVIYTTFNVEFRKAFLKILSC
From the text: as §1

rD4 = target: T4, rD4 (Rattus norvegicus, UniProt P30729); test: NIMH PDSP selectivity binding, rD4
T4 sequence (P30729 1-387): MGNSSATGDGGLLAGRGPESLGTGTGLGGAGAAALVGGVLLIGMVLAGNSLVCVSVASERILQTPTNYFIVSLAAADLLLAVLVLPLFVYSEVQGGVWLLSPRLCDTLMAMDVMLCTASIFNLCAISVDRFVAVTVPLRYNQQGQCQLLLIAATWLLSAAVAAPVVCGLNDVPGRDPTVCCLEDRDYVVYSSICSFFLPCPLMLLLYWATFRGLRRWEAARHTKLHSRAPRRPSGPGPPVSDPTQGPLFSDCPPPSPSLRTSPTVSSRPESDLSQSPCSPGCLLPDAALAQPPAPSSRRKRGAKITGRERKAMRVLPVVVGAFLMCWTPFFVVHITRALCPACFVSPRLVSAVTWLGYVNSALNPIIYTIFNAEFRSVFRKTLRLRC
From the text: as §1

hD5 = hD5 (Homo sapiens, UniProt P21918); test: NIMH PDSP selectivity binding, hD5
Sequence of hD5 (P21918 whole entry): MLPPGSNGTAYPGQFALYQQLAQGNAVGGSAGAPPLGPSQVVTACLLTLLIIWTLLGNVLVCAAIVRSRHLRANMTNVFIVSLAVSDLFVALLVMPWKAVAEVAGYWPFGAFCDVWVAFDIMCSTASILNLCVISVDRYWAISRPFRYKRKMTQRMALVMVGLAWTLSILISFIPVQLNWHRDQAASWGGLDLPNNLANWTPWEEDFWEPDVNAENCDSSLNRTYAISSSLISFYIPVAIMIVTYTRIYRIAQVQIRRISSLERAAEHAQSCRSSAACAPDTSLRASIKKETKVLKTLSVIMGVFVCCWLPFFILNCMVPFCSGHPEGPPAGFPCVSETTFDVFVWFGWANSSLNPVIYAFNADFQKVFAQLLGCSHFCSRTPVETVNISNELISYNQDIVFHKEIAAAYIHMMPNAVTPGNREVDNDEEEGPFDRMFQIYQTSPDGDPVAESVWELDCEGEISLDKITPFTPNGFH
From the text: as §1

T1 sequence (P50406 whole entry): as the sequence (P50406 whole entry) above

For Cc1[nH]c2ccc(O)cc2c1CCN [2-methyl-5-HT, reference compound], the “affinity for the 5-HT6 receptor (in words)” value (human 5-HT6) was “high affinity”, the “affinity for the 5-HT6 receptor (in words)” value (human 5-HT6; listed as 2-methyly-5-HT) was “affinity equivalent to that of the parent compound” and the “greater affinity at 5-HT6 than at 5-HT3 receptors” value (5-HT3 receptors; 5-HT6 over 5-HT3) was 20 fold.
Compound Cc1[nH]c2ccccc2c1CCN(C)C [2-methyl-N,N-dimethyltryptamine] has a Ki (human 5-HT6; read-out: affinity for the 5-HT6 receptor, Ki) of 0.308 µM.
With COc1ccc2[nH]c(C)c(CCN)c2c1 [5-methoxy-2-methyltryptamine, reference compound] the “affinity for the 5-HT6 receptor (in words)” value (human 5-HT6) was “affinity comparable to 2-methyl-5-HT” and the “affinity for 5-HT3 receptors (in words)” value (5-HT3 receptors) was “lacks affinity”.
In the case of COc1ccc2[nH]c(-c3ccccc3)c(CCN)c2c1 [5-methoxy-2-phenylotryptamine], the “affinity for the 5-HT6 receptor (in words)” value (human 5-HT6) is reported as “high affinity” and the “effect on adenylate cyclase activity (in words)” value [1] is reported as “antagonist to 5-HT stimulated adenylate cyclase activity”.
Compound COc1ccc2[nH]c(C)c(CCN(C)C)c2c1 [Compound A, 2-methyl-5-methoxy-N,N-dimethyltryptamine] has a Ki (hD1) greater than 10 µM, a Ki (rD2) greater than 10 µM and a Ki (rD3) greater than 10 µM. The Ki (rD4) was greater than 10 µM and the Ki (hD5) was greater than 10 µM.
In the case of CCc1[nH]c2ccc(OC)cc2c1CCN(C)C [Compound B, 2-ethyl-5-methoxy-N,N-dimethyltryptamine maleate], the Ki (hD1) is reported as greater than 10 µM, the Ki (rD2) is reported as greater than 10 µM and the Ki (rD3) is reported as greater than 10 µM. The Ki (rD4) was greater than 10 µM and the Ki (hD5) was greater than 10 µM.
COc1ccc2[nH]c(-c3ccccc3)c(CCN(C)C)c2c1 [Compound D, 5-methoxy-2-phenyl-N,N-dimethyltryptamine oxalate] gave a Ki (hD1; hD1, read-out: Ki) of no less than 10 µM, a Ki (rD2; rD2, read-out: Ki) of no less than 10 µM and a Ki (rD4; rD4, read-out: Ki) of no less than 10 µM.
COc1ccc2c(c1)c(CCN(C)C)c1n2CCCC1=O [I, 6,7,8,9-tetrahydro-2-methoxy-10-(N,N-dimethylaminoethyl)pyridol[1,2-a]indole-9-one Oxalate] gave a Ki (human 5-HT6; human 5-HT6 in HEK 293, [3H]LSD, third table, read-out: Ki) of 0.084 µM.

Reference: patent US6403808B1, “Selective 5-HT6 receptor ligands” (priority 2001, dated 2002)
